# Laboratory results: patent US10550105B2 (Ribon Therapeutics Inc., priority 2018, dated 2020)
# Target: PARP7 (Homo sapiens (Human), UniProt Q7Z3E1)
# Experiment: Enzymatic assay for inhibition of PARP7: TR-FRET displacement of biotinylated Probe A from the TIPARP active site
# Format: binding
# Details: Table A-1
# Method in brief: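 Compounds were tested as dose-response series, and reactions were incubated a further 30 min at 25° C. TR-FRET was read at 320 nm excitation with 615 and 665 nm emission after a 90 μs delay. The 665/615 ratio gave the TIPARP–Probe A complex, and % inhibition was fitted against concentration.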
# Sequence of PARP7 (Q7Z3E1 whole entry): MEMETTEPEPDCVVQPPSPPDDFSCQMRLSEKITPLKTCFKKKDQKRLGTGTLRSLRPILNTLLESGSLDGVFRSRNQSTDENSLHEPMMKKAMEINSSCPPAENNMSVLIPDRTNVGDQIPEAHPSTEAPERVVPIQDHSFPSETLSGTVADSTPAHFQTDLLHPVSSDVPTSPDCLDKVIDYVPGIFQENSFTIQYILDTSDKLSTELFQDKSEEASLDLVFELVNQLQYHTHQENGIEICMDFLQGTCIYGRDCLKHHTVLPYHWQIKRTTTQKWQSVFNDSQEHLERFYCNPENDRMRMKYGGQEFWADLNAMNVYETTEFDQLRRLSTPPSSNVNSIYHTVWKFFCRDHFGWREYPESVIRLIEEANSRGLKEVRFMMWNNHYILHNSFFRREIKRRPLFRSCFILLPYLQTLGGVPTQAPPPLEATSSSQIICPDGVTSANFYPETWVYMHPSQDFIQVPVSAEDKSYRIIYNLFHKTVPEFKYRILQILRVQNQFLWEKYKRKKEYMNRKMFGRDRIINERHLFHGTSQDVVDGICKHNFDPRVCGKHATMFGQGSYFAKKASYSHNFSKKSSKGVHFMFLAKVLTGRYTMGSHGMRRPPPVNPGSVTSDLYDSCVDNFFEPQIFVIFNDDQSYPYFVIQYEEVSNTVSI
row,IC50,SMILES
1,< 100 nM,"O=C(C[C@H]1CC[C@@H]([C@@H]2CCCN2c2cn[nH]c(=O)c2C(F)(F)F)O1)N1CCN(c2ncc(Cl)cn2)CC1 [Example 147B, 5-[(2S)-2-[(2S,5R)-5-[2-[4-(5-chloropyrimidin-2-yl)piperazin-1-yl]-2-oxoethyl]oxolan-2-yl]pyrrolidin-1-yl]-4-(trifluoromethyl)-2,3-dihydropyridazin-3-one]"
2,< 100 nM,"O=C(CCOC[C@@H]1CCCN1c1cn[nH]c(=O)c1C(F)(F)F)N1CCN(c2ncc(C(F)(F)F)cn2)CC1 [Example 457, (S)-5-(2-((3-Oxo-3-(4-(5-(trifluoromethyl)pyrimidin-2-yl)piperazin-1-yl)propoxy)methyl)pyrrolidin-1-yl)-4-(trifluoromethyl)pyridazin-3(2H)-one]"
3,< 100 nM,"N#Cc1ccc(N2CCN(C(=O)C[C@H]3CC[C@@H](CNc4cn[nH]c(=O)c4C(F)(F)F)O3)CC2)nc1 (single isomer, unassigned) [Example 581 Isomer A]"
4,< 100 nM,"O=c1[nH]ncc(N2Cc3cccc(OC4CCOCC4)c3C2)c1C(F)(F)F [Example 194, 5-(4-((Tetrahydro-2H-pyran-4-yl)oxy)isoindolin-2-yl)-4-(trifluoromethyl)pyridazin-3(2H)-one]"
5,< 100 nM,"C[C@@H](COCCS(=O)(=O)N1CCN(c2ncc(C(C)(C)C)cn2)CC1)Nc1cn[nH]c(=O)c1C(F)(F)F [Example 725, (S)-5-((1-(2-((4-(5-(Tert-butyl)pyrimidin-2-yl)piperazin-1-yl)sulfonyl)ethoxy)propan-2-yl)amino)-4-(trifluoromethyl)pyridazin-3(2H)-one]"
6,< 100 nM,"C[C@@H](COCCC(=O)N1CCN(c2ncc(C(F)(F)F)s2)CC1)Nc1cn[nH]c(=O)c1C(F)(F)F [Example 622, (S)-5-((1-(3-Oxo-3-(4-(5-(trifluoromethyl)thiazol-2-yl)piperazin-1-yl)propoxy)propan-2-yl)amino)-4-(trifluoromethyl)pyridazin-3(2H)-one]"
7,< 100 nM,"O=C(C[C@H]1CC[C@H]([C@@H]2CCCN2c2cn[nH]c(=O)c2C(F)(F)F)O1)N1CCN(c2ccc(Cl)cn2)CC1 [Example 148C, 5-[(2S)-2-[(2R,5R)-5-[2-[4-(5-chloropyridin-2-yl)piperazin-1-yl]-2-oxoethyl]oxolan-2-yl]pyrrolidin-1-yl]-4-(trifluoromethyl)-2,3-dihydropyridazin-3-one]"
8,< 100 nM,"O=c1[nH]ncc(N2Cc3cc(F)c(OCCN4CCOCC4)cc3C2)c1C(F)(F)F [Example 19, 5-[5-fluoro-6-[2-(morpholin-4-yl)ethoxy]-2,3-dihydro-1H-isoindol-2-yl]-4-(trifluoromethyl)-2,3-dihydropyridazin-3-one]"
9,100 to 1000 nM,"O=c1[nH]ncc(N2Cc3nccc(OC4CCNCC4)c3C2)c1C(F)(F)F [Example 9, 5-[4-(piperidin-4-yloxy)-5H,6H,7H-pyrrolo[3,4-b]pyridin-6-yl]-4-(trifluoromethyl)-2,3-dihydropyridazin-3-one]"
10,< 100 nM,"N#Cc1ccc(N2CCN(C(=O)c3cc(OCC4c5ccccc5CN4c4cn[nH]c(=O)c4C(F)(F)F)cnc3F)CC2)nc1 (stereo not shown) [Example 61, 6-(4-[[2-fluoro-5-([2-[6-oxo-5-(trifluoromethyl)-1,6-dihydropyridazin-4-yl]-2,3-dihydro-1H-isoindol-1-yl]methoxy)pyridin-3-yl]carbonyl]piperazin-1-yl)pyridine-3-carbonitrile]"
11,≥ 1000 nM,"N#Cc1ccc(N2CCN(C(=O)c3ccc(OC[C@@H]4c5ccccc5CN4c4cn[nH]c(=O)c4C(F)(F)F)cc3)CC2)nc1 (single isomer, unassigned) [Example 35 Isomer A]"
12,< 100 nM,"O=C(C[C@H]1CC[C@@H](COc2cn[nH]c(=O)c2C(F)(F)F)O1)N1CCN(c2ncc(C(F)(F)F)cn2)CC1 [Example 574 Isomer C, 5-(((2S,5R)-5-(2-Oxo-2-(4-(5-(trifluoromethyl)pyrimidin-2-yl)piperazin-1-yl)ethyl)-tetrahydrofuran-2-yl)methoxy)-4-(trifluoromethyl)pyridazin-3(2H)-one]"
13,≥ 1000 nM,"CC(=O)N1CCN(C(=O)c2cccc(OC[C@H]3c4ccccc4CN3c3cn[nH]c(=O)c3C(F)(F)F)c2)CC1 [Example 406, (R)-5-(1-((3-(4-Acetylpiperazine-1-carbonyl)phenoxy)methyl)isoindolin-2-yl)-4-(trifluoromethyl)pyridazin-3(2H)-one]"
14,< 100 nM,"N#Cc1ccc(NCCC(=O)Nc2cncc(OCC3c4ccccc4CN3c3cn[nH]c(=O)c3C(F)(F)F)c2)nc1 (stereo not shown) [Example 63, 3-[(5-cyanopyridin-2-yl)amino]-N-[5-([2-[6-oxo-5-(trifluoromethyl)-1,6-dihydropyridazin-4-yl]-2,3-dihydro-1H-isoindol-1-yl]methoxy)pyridin-3-yl]propanamide]"
15,< 100 nM,"CC(=O)N1CCCC1COc1cc2c(cc1F)CN(c1cn[nH]c(=O)c1C(F)(F)F)C2 (stereo not shown) [Example 50, 5-[5-[(1-acetylpyrrolidin-2-yl)methoxy]-6-fluoro-2,3-dihydro-1H-isoindol-2-yl]-4-(trifluoromethyl)-2,3-dihydropyridazin-3-one]"
16,< 100 nM,"N#Cc1cnc(N2CCN(C(=O)c3cc(OCC4c5ccccc5CN4c4cn[nH]c(=O)c4C(F)(F)F)cnc3F)CC2)nc1 (stereo not shown) [Example 62, 2-(4-[[2-fluoro-5-([2-[6-oxo-5-(trifluoromethyl)-1,6-dihydropyridazin-4-yl]-2,3-dihydro-1H-isoindol-1-yl]methoxy)pyridin-3-yl]carbonyl]piperazin-1-yl)pyrimidine-5-carbonitrile]"
17,< 100 nM,"O=C(CCOCCOc1cn[nH]c(=O)c1C(F)(F)F)N1CCN(c2ncc(Cl)cn2)CC1 [Example 533, 5-(2-[3-[4-(5-Chloropyrimidin-2-yl)piperazin-1-yl]-3-oxopropoxy]ethoxy)-4-(trifluoromethyl)-2,3-dihydropyridazin-3-one]"
18,≥ 1000 nM,"O=C(C[C@@H]1CC[C@@H](COc2cn[nH]c(=O)c2Cl)O1)N1CCN(c2ncc(Cl)cn2)CC1 (single isomer, unassigned) [Example 566 Isomer A]"
19,100 to 1000 nM,"C[C@H](CSCCC(=O)N1CCN(c2ncc(C(F)(F)F)cn2)CC1)Nc1cn[nH]c(=O)c1C(F)(F)F [Example 703, (R)-5-((1-((3-Oxo-3-(4-(5-(trifluoromethyl)pyrimidin-2-yl)piperazin-1-yl)propyl)thio)propan-2-yl)amino)-4-(trifluoromethyl)pyridazin-3(2H)-one]"
20,100 to 1000 nM,"N#Cc1ccc(N2CCN(C(=O)c3cccc(OCC4COCCN4c4cn[nH]c(=O)c4C(F)(F)F)c3)CC2)nc1 (stereo not shown) [Example 71, 6-(4-[[3-([4-[6-oxo-5-(trifluoromethyl)-1,6-dihydropyridazin-4-yl]morpholin-3-yl]methoxy)phenyl]carbonyl]piperazin-1-yl)pyridine-3-carbonitrile]"
21,< 100 nM,"O=C(C[C@H]1CC[C@@H](CNc2cn[nH]c(=O)c2C(F)(F)F)O1)N1CCN(c2ccc(C(F)(F)F)cn2)CC1 (single isomer, unassigned) [Example 546 Isomer C]"
22,< 100 nM,"CC(=O)N1CCN(C(=O)CCOC[C@@H]2c3ccccc3CN2c2cn[nH]c(=O)c2C(F)(F)F)CC1 [Example 419, (S)-5-(1-((3-(4-Acetylpiperazin-1-yl)-3-oxopropoxy)methyl)isoindolin-2-yl)-4-(trifluoromethyl)pyridazin-3(2H)-one]"
23,< 100 nM,"CN(C)CCOc1cc(F)c2c(c1)CN(c1cn[nH]c(=O)c1C(F)(F)F)C2 [Example 331, 5-(6-(2-(Dimethylamino)ethoxy)-4-fluoroisoindolin-2-yl)-4-(trifluoromethyl)pyridazin-3(2H)-one]"
24,< 100 nM,"N#Cc1ccc(N2CCN(C(=O)C3CCC(OCC4CCN(c5cn[nH]c(=O)c5C(F)(F)F)C4)CC3)CC2)nc1 (stereo not shown) [Example 97, 6-[4-[4-([1-[6-oxo-5-(trifluoromethyl)-1,6-dihydropyridazin-4-yl]pyrrolidin-3-yl]methoxy)cyclohexanecarbonyl]piperazin-1-yl]pyridine-3-carbonitrile]"
25,< 100 nM,"O=c1[nH]ncc(N2Cc3cccc(NCc4ccncc4)c3C2)c1C(F)(F)F [Example 266, 5-(4-((Pyridin-4-ylmethyl)amino)isoindolin-2-yl)-4-(trifluoromethyl)pyridazin-3(2H)-one]"
26,< 100 nM,"N#Cc1ccc(N2CCN(C(=O)c3cccc(OCC4CCN(c5cn[nH]c(=O)c5C(F)(F)F)C4)c3)CC2)nc1 (stereo not shown) [Example 469, 6-(4-(3-((1-(6-Oxo-5-(trifluoromethyl)-1,6-dihydropyridazin-4-yl)pyrrolidin-3-yl)methoxy)benzoyl)piperazin-1-yl)nicotinonitrile]"
27,< 100 nM,N#Cc1ccc(N2CCN(C(=O)c3cccc(OC[C@@H]4C[C@H](O)CN4c4cn[nH]c(=O)c4C(F)(F)F)c3)CC2)nc1 [Example 51]
28,≥ 1000 nM,"O=C(CCNC[C@H]1c2ccccc2CN1c1cn[nH]c(=O)c1C(F)(F)F)N1CCN(c2ncc(Cl)cn2)CC1 [Example 628, (R)-5-(1-(((3-(4-(5-Chloropyrimidin-2-yl)piperazin-1-yl)-3-oxopropyl)amino)methyl)isoindolin-2-yl)-4-(trifluoromethyl)pyridazin-3(2H)-one]"
29,< 100 nM,"N#Cc1cnc(N2CCN(C(=O)c3cncc(OCC4c5ccccc5CN4c4cn[nH]c(=O)c4C(F)(F)F)c3)CC2)nc1 (stereo not shown) [Example 379, 2-(4-(5-((2-(6-Oxo-5-(trifluoromethyl)-1,6-dihydropyridazin-4-yl)isoindolin-1-yl)methoxy)nicotinoyl)piperazin-1-yl)pyrimidine-5-carbonitrile]"
30,< 100 nM,"O=c1[nH]ncc(N2Cc3cccc(OC4CCNCC4)c3C2)c1C(F)(F)F [Example 170, 5-(4-(Piperidin-4-yloxy)isoindolin-2-yl)-4-(trifluoromethyl)pyridazin-3(2H)-one]"

row,SMILES,IC50
1,"N#Cc1ccc(N2CCN(C(=O)CCO[C@H]3CC[C@H]3Nc3cn[nH]c(=O)c3C(F)(F)F)CC2)nc1 [Example 541, 6-(4-[3-[(1S,2R)-2-[[6-Oxo-5-(trifluoromethyl)-1,6-dihydropyridazin-4-yl]amino]cyclobutoxy]propanoyl]piperazin-1-yl)pyridine-3-carbonitrile]",< 100 nM
